Laboratory results: US20230301982A1, “N'-(2-CHLORO-6-METHYLBENZOYL)-4-METHYL-3-[2-(3-QUINOLYL)ETHYNYL]-BENZOHYDRAZIDE FOR TREATMENT OF ALZHEIMER'S DISEASE” (SUN PHARMA ADVANCED RESEARCH COMPANY LIMITED, priority 2020, published 2023)

How the values were obtained:
K562 cells = assay: In-vitro Cell Proliferation Assay (K562 cells; measure of endogenous Bcr-Abl kinase inhibition); type: cell-based; details: for inhibition at 0.0001 µM: Homo sapiens, read-out: % inhibition (at 0.1 nM), 0.1 nM, cell proliferation of K562 cells
Source text: (For experimental procedure, refer to the ‘416 publication under In-vitro Cell Proliferation Assay heading).

[1] = Concentration of compounds in brain and plasma; type: in vivo
hERG channel = hERG channel (Homo sapiens, UniProt Q12809); assay: in vitro effect on hERG channel; details: at a therapeutically effective dose
Sequence of hERG channel (Q12809 whole entry): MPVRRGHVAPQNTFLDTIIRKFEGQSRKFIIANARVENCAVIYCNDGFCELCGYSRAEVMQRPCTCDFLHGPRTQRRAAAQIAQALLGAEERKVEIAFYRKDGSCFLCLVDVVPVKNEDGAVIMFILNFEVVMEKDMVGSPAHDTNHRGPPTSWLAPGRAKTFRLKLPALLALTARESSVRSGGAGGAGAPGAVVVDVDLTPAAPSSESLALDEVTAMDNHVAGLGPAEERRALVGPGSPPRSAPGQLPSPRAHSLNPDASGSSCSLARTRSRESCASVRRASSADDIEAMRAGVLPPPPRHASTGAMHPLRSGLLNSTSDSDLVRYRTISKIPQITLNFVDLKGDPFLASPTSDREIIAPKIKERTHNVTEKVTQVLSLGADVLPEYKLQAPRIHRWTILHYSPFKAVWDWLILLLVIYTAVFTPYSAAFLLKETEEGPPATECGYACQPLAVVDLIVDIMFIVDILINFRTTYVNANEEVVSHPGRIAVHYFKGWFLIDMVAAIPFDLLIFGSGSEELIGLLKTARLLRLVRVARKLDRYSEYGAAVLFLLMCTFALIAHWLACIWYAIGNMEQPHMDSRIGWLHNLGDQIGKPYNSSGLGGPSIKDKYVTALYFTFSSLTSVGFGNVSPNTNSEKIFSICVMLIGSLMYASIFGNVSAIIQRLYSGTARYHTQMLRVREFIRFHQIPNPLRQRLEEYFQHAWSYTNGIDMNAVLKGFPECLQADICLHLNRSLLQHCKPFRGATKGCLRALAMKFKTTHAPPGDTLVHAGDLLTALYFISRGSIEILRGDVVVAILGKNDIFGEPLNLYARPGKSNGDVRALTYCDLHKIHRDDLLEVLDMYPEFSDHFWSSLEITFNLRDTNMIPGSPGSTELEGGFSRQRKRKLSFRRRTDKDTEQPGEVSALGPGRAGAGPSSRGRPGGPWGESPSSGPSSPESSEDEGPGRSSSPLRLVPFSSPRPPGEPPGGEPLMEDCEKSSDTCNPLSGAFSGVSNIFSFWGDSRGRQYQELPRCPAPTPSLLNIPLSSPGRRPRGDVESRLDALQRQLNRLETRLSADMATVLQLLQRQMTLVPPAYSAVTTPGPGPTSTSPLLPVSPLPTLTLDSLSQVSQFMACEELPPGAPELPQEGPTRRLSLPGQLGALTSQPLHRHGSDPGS

[2] = tested on: ECG parameters (QT interval, QTc interval, QTCf interval and heart rate); assay: in vivo effect on ECG parameters in conscious beagle dogs; details: at a therapeutically effective dose
[3] = tested on: ECG parameters (QT interval, QTc interval, QTCf interval and heart rate); assay: in vivo effect on ECG parameters in guinea pig; details: at a therapeutically effective dose
total Aβ = assay: Total Aβ content in cortex of Tg APP/PS1 mice using ELISA; type: in vivo
Procedure: (§1) Six month old male APP/PS1 mice which show little overt behavioral or pathological phenotype of AD were used. All experiments involving animals were performed in accordance with institutional guidelines for the use and care of animals after approval from the Institutional Animal Ethics Committee (IAEC), Central Animal Facility, Indian Institute of Science. Only male mice were used for the study and were housed at ambient temperature of 25° C. under 12 hours light-dark cycle with free access to food chow and drinking water. All mice were dosed once a day, orally with placebo for Compound 1 at 30 and 45 mg/kg for a period of three months.
(§2) After completion of treatment phase, mice were subjected to behavioural assessment using CFC test, followed by biochemical estimation of brain Aβ using an enzyme-linked immunosorbent assay (ELISA) and Aβ plaque load using Immunohistochemistry (IHC).
The animals were (n=10/treatment) deeply anesthetized with a mixture of xylazine and ketamine (1:8), perfused with 10 mL of 1x saline for 4 minutes, their brains were excised, homogenized immediately in 0.5 mL ELISA buffer, and centrifuged at 5000xg for 15 minutes at 4° C. to precipitate the pellet. Total Aβ was estimated in the cortex of APP/PS1 mice using ELISA assay kit as per the manufacturer instruction.

Aβ plaque = Aβ plaque load (% area fraction) in cortex of Tg APP/PS1 mice using IHC; type: in vivo; details: 30 mg/kg orally once a day for three months
Procedure: as §1, §2
Mouse brains (n=5/treatment) were fixed in 4% (w/v) buffered paraformaldehyde (PFA). The brain tissues were processed for paraffin embedding and serial sections ([…]) were cut using microtome (Leica Biosystems Inc., Buffalo Grove, IL, USA). Sections were de-waxed by xylene treatment followed by a brief wash with chloroform to remove the residual xylene. Endogenous peroxidase activity was blocked with methanol containing hydrogen peroxide (3%, v/v) for 30 minutes. […]

Tg APP/PS1 mice = assay: Contextual fear conditioning (CFC): freezing behaviour in Tg APP/PS1 mice; type: in vivo; details: 24 hours after fear conditioning
Procedure: as §1, §2
The CFC test was performed using an apparatus from San Diego Instruments (CA, USA). The CFC training context was rectangular in shape, identity of the context was maintained with the presence of distinct odor (2% acetic acid, v/v). The conditioning chamber was cleaned with 70% ethanol before and after each session. […] Contextual fear memory was assessed by returning mice to the training context 24 hours after fear conditioning and analyzing freezing during a test period of 2 minutes. […]

Aβ42 = assay: Estimation of Aβ42 and Aβ42/Aβ40 ratio in TgSwDI mice using ELISA; type: in vivo; details: o.d., 96 days, TgSwDI mice cortex
Procedure: Female TgSwDI (expresses human APP gene containing Swedish, Dutch, and Iowa mutations) of 5-7 months of age were used for the study. Animals were habituated for handling for one week prior to initiation of dosing. All experiments involving animals were performed in accordance with institutional guidelines for the use and care of animals after approval from the Institutional Animal Ethics Committee (IAEC), Sun Pharma Advanced Research Company (SPARC) Ltd. Mice were housed at an ambient temperature of 25° C. under 12 hours light-dark cycle with free access to food chow and drinking water. Animals were treated with assigned treatments p.o., o.d., for a period of 96 days. […] After completion of treatment phase, mice from each treatment group were perfused with ice-cold phosphate buffered saline (PBS, pH 7.4), brain was excised, cortex was isolated and processed for preparation of lysates as per protocol provided by Invitrogen ELISA kit. Estimation of Aβ42 and Aβ40 were carried out as per the instructions provided by Invitrogen user manual. Ratio of Aβ42/40 was calculated.

[4] = 30 mg/kg orally once a day for three months
[5] = 45 mg/kg orally once a day for three months

For Cc1ccc(C(=O)NNC(=O)c2c(C)cccc2Cl)cc1C#Cc1cnc2ccccc2c1 [Compound 1, N′-(2-chloro-6-methylbenzoyl)-4-methyl-3-[2-(3-quinolyl)ethynyl]-benzohydrazide], the inhibition at 0.0001 µM (K562 cells) was 37%, the “potency (inhibition of K562 cell proliferation)” value (K562 cells; at 0.1 nM, Compound 1 versus similar compounds from the ‘416 publication) was “significantly higher” and the “higher ratio of brain to plasma concentration compared to nilotinib” value ([1]; at 1 hour, versus nilotinib) was “about 40 times”. The “brain penetration compared with dasatinib” value ([1]; versus dasatinib) was “significantly better brain penetration”, the “ratio of concentration in brain to plasma as compared to nilotinib or dasatinib” value ([1]; versus nilotinib or dasatinib) was “significantly higher” and the “cardiovascular side effects: in vitro effect on hERG channel” value (hERG channel) was “devoid of cardiovascular side effects”. For the same molecule, the “cardiovascular side effects: in vivo effect on ECG parameters (QT, QTc, QTCf interval, heart rate)” value [2] was “devoid of cardiovascular side effects”, the “cardiovascular side effects: in vivo effect on ECG parameters (QT, QTc, QTCf interval, heart rate)” value [3] was “devoid of cardiovascular side effects” and the “total Aβ content in cortex compared to placebo treated group” value (total Aβ; [4]) was “significant reduction”. For the same molecule, the “total Aβ content in cortex compared to placebo treated group” value (total Aβ; [5]) was “significant reduction”, the “Aβ plaque (% area fraction) in cortex compared to placebo” value (Aβ plaque) was “significantly reduced” and the “% freezing of mice (CFC) compared to placebo treated group” value (Tg APP/PS1 mice; [4]) was “significant increase”. For the same molecule, the “% freezing of mice (CFC) compared to placebo treated group” value (Tg APP/PS1 mice; [5]) was “significant increase”, the “effect on Aβ42 content compared to placebo group” value (Aβ42; 30 mg/kg p.o.) was “statistically significant” and the “effect on Aβ42 content compared to placebo group” value (Aβ42; 45 mg/kg p.o.) was “statistically significant”. The “Aβ42/Aβ40 ratio, trend over doses” value (Aβ42; 15, 30, and 45 mg/kg p.o.) was “dose-dependent reduction” and the “Aβ42 content, trend over doses” value (Aβ42; 15, 30, and 45 mg/kg p.o.) was “dose-dependent reduction”.
In the case of Cc1ccc(C(=O)NNC(=O)c2c(C)cccc2Cl)cc1C#Cc1ccc2ncccc2c1 [Compound 1.10 of the ‘416 publication], the inhibition at 0.0001 µM (K562 cells) was 0%.
Work on Cc1cccc(Cl)c1C(=O)NNC(=O)c1ccc(F)c(C#Cc2cnc3ccccc3c2)c1 [Compound 1.21 of the ‘416 publication] yielded an inhibition at 0.0001 µM (K562 cells) of 6%.
Work on Cc1ccc(C(=O)NNC(=O)c2c(C)cccc2Cl)cc1C#Cc1cnc2ccc(Cl)cc2c1 [Compound 1.50 of the ‘416 publication] yielded an inhibition at 0.0001 µM (K562 cells) of 0%.
Molecule Cc1ccc(C(=O)NNC(=O)c2c(C)cccc2Cl)cc1C#Cc1cnc2ccc(F)cc2c1 [Compound 1.55 of the ‘416 publication] has an inhibition at 0.0001 µM (K562 cells) of 0%.
Work on Cc1cccc(Cl)c1C(=O)NNC(=O)c1cccc(C#Cc2cnc3ccccc3c2)c1 [Compound 1.59 of the ‘416 publication] yielded an inhibition at 0.0001 µM (K562 cells) of 2%.
In the case of Cc1cn(-c2cc(NC(=O)c3ccc(C)c(Nc4nccc(-c5cccnc5)n4)c3)cc(C(F)(F)F)c2)cn1 [Nilotinib, nilotinib, reference compound], the “effect on Aβ42 content compared to placebo group” value (Aβ42; 30 mg/kg p.o.) was “no statistically significant reduction”.
